In patent US20230391786A1, “cGAS INHIBITORS” (Eli Lilly and Company, priority 2022, published 2023):
Counter-ions that a name gives are not always drawn.

Tests used:
recombinant human cGAS = recombinant human cGAS (Homo sapiens (Human), UniProt Q8N884); experiment: In vitro inhibition assay of cGAS activity (cGAMP production, RapidFire mass spectrometry); format: biochemical; conditions: 10 nM recombinant human cGAS, 60 nM 75-bp dsDNA, ATP, GTP, room temperature 3 hours, read-out: IC50 (μM), In vitro inhibition assay for Compounds 95-348
Method in brief: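 Full-length His6-tagged human cGAS (10 nM, E. coli-expressed) was incubated 3 h at room temperature with 60 nM 75-bp dsDNA, ATP, 50 μM GTP and compound at pH 7.5 with 5 mM MgCl2. cGAMP formation was measured by RapidFire mass spectrometry, and IC50 was taken from a 4-parameter logistic fit.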

[1] = test system: cGAS activity in THP1 cells (IFNb as marker); experiment: Cellular assay to measure cGAS activity (IFNb production in PMA-differentiated THP1 cells stimulated by RDG-Adenovirus-GFP); format: cell-based, human; conditions: Homo sapiens, THP-1, THP1 cells, PMA differentiated, RDG-Adenovirus-GFP 1000 MOI, IFNb AlphaLISA, overnight incubation; read-out: IC50 (μM), Cellular assay for Compounds 95-348
Method in brief: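 PMA-differentiated THP1 cells were infected with RDG-Adenovirus-GFP at 1000 MOI for 4 h, then exposed overnight to test compounds. IFNb in the supernatant was quantified by AlphaLISA as a cGAS activity marker, and IC50 was fitted with a 4-parameter logistic equation.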

Chain of recombinant human cGAS (Q8N884 whole entry): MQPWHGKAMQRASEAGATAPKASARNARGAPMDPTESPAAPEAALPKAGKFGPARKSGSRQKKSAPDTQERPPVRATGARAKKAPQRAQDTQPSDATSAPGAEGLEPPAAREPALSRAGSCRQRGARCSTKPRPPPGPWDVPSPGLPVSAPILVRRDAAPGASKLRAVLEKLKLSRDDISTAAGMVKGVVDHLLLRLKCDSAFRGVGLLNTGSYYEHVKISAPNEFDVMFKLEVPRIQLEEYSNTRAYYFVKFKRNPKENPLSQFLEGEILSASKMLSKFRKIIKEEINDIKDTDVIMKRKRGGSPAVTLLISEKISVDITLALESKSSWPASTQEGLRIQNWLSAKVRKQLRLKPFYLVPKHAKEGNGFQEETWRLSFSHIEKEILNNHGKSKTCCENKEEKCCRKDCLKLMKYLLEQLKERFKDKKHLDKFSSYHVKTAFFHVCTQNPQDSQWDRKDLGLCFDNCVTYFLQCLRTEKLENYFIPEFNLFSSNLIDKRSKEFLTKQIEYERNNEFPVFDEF

Row | SMILES | IC50 (recombinant human cGAS) | IC50 [1]
1 | N#CCOc1cc(Cl)c(Cl)c2c1c(-c1cn[nH]c1)c1n2CCN(c2ncccn2)C1 [Example 204, 2-[[6,7-Dichloro-10-(1H-pyrazol-4-yl)-2-pyrimidin-2-yl-3,4-dihydro-1H-pyrazino[1,2-a]indol-9-yl]oxy]acetonitrile] | 0.0201 µM | 0.854 µM
2 | CC(CO)CNc1cc(Cl)c(Cl)c2[nH]cc(-c3cn[nH]c3)c12 (stereo not drawn) [Example 205, 3-[[6,7-Dichloro-3-(1H-pyrazol-4-yl)-1H-indol-4-yl]amino]-2-methyl-propan-1-ol] | 0.0287 µM | 1.32 µM
3 | Clc1cc(OC2COC2)c2c(-c3cn[nH]c3)c[nH]c2c1Cl [Example 206, 6,7-Dichloro-4-(oxetan-3-yloxy)-3-(1H-pyrazol-4-yl)-1H-indole] | 0.0421 µM | 1.28 µM
4 | O[C@H]1C[C@@H](Oc2cc(Cl)c(Cl)c3[nH]cc(-c4cn[nH]c4)c23)C1 [Example 207, Cis-3-[[6,7-Dichloro-3-(1H-pyrazol-4-yl)-1H-indol-4-yl]oxy]cyclobutanol] | 0.042 µM | 1.63 µM
5 | F[C@H]1C[C@@H](Nc2cc(Cl)c(Cl)c3[nH]cc(-c4cn[nH]c4)c23)C1 [Example 208, Cis-6,7-Dichloro-N-(3-fluorocyclobutyl)-3-(1H-pyrazol-4-yl)-1H-indol-4-amine] | 0.0416 µM | 2.54 µM
6 | OCCc1cc(-n2cc(-c3cn[nH]c3)c3ccc(Cl)c(Cl)c32)on1 [Example 211, 2-[5-[6,7-Dichloro-3-(1H-pyrazol-4-yl)indol-1-yl]isoxazol-3-yl]ethanol] | 0.0342 µM | 2.28 µM
7 | O=C(O)Cn1cc(-n2cc(-c3cn[nH]c3)c3ccc(Cl)c(Cl)c32)nn1 [Example 212, 2-[4-[6,7-Dichloro-3-(1H-pyrazol-4-yl)indol-1-yl]triazol-1-yl]acetic acid] | 0.0125 µM | > 10 µM
8 | NC(=O)Cn1cc(-n2cc(-c3cn[nH]c3)c3ccc(Cl)c(Cl)c32)nn1 [Example 213, 2-[4-[6,7-Dichloro-3-(1H-pyrazol-4-yl)indol-1-yl]triazol-1-yl]acetamide] | 0.0538 µM | 4.1 µM
9 | NCCn1cc(-n2cc(-c3cn[nH]c3)c3ccc(Cl)c(Cl)c32)nn1 [Example 214, 2-[4-[6,7-Dichloro-3-(1H-pyrazol-4-yl)indol-1-yl]triazol-1-yl]ethanamine hydrochloride] | 0.0686 µM | 0.885 µM
10 | CNNc1cc(Cl)c(Cl)c2[nH]cc(-c3cn[nH]c3)c12 [Example 215, 1-[6,7-Dichloro-3-(1H-pyrazol-4-yl)-1H-indol-4-yl]-2-methyl-hydrazine hydrochloride] | 0.0864 µM | 2.59 µM
11 | NCC(=O)NCc1[nH]c2c(Cl)c(Cl)ccc2c1-c1cn[nH]c1 [Example 216, 2-Amino-N-[[6,7-dichloro-3-(1H-pyrazol-4-yl)-1H-indol-2-yl]methyl]acetamide formic acid salt] | 0.0598 µM | 4.17 µM
12 | CNCC(=O)NCc1[nH]c2c(Cl)c(Cl)ccc2c1-c1cn[nH]c1 [Example 217, N-[[6,7-Dichloro-3-(1H-pyrazol-4-yl)-1H-indol-2-yl]methyl]-2-(methylamino)acetamide formic acid salt] | 0.0794 µM | 2.12 µM
13 | OCCn1cc(-n2cc(-c3cn[nH]c3)c3ccc(Cl)c(F)c32)nn1 [Example 218, 2-[4-[6-Chloro-7-fluoro-3-(1H-pyrazol-4-yl)indol-1-yl]triazol-1-yl]ethanol] | 0.0679 µM | 3.27 µM
14 | O=C(Nc1cc(Cl)cc2[nH]cc(-c3cn[nH]c3)c12)C(F)F [Example 219, N-(6-Chloro-3-(1H-pyrazol-4-yl)-1H-indol-4-yl)-2,2-difluoroacetamide] | 0.0348 µM | 0.35 µM
15 | O=C(CO)NCc1[nH]c2c(Cl)c(Cl)cc(NC(=O)CO)c2c1-c1cn[nH]c1 [Example 221, N-[[6,7-Dichloro-4-[(2-hydroxyacetyl)amino]-3-(1H-pyrazol-4-yl)-1H-indol-2-yl]methyl]-2-hydroxy-acetamide] | 0.0238 µM | > 10 µM
